# Assay results from patent US20240228504A1, “SUBSTITUTED TRICYCLIC AMIDES, ANALOGUES THEREOF, AND METHODS USING SAME” (Arbutus Biopharma Corporation, priority 2020, published 2024).
# Test system: HBV rcDNA in HepDE19 cells
# Experiment: HepDE19 assay with bDNA quantitation of HBV rcDNA
# Type: cell-based, hepatitis B virus
# Conditions: HepDE19 assay, inhibition of rcDNA formation, bDNA quantitation; read-out: DE-19bDNA EC50
row,SMILES,EC50 [nM]
1,"CN(C(=O)c1cc2cc(F)c(C(F)F)cc2[nH]1)C1CNCc2[nH]c(=O)c3cc(F)c(F)cc3c21 (single isomer, unassigned) [Compound 221, N-(8,9-Difluoro-6-oxo-1,2,3,4,5,6-hexahydrobenzo[c][1,7]naphthyridin-1-yl)-6-(difluoromethyl)-5-fluoro-N-methyl-1H-indole-2-carboxamide]",30
2,"CN(C(=O)c1cc2ccc(F)cn2c1)C1CNCc2[nH]c(=O)c3cc(F)c(F)cc3c21 (single isomer, unassigned) [Compound 222, N-(8,9-Difluoro-6-oxo-1,2,3,4,5,6-hexahydrobenzo[c][1,7]naphthyridin-1-yl)-6-fluoro-N-methylindolizine-2-carboxamide]",7070
3,"CN(C(=O)c1cc2ccc(F)cn2c1)C1CNCc2[nH]c(=O)c3cc(F)c(F)cc3c21 (single isomer, unassigned) [Compound 223, N-(8,9-Difluoro-6-oxo-1,2,3,4,5,6-hexahydrobenzo[c][1,7]naphthyridin-1-yl)-6-fluoro-N-methylindolizine-2-carboxamide]",30
4,"CN(C(=O)c1cc2c(C(F)F)cc(F)cc2[nH]1)C1COCc2[nH]c(=O)c3cc(F)ccc3c21 (single isomer, unassigned) [Compound 238, 4-(Difluoromethyl)-6-fluoro-N-(8-fluoro-6-oxo-1,4,5,6-tetrahydro-2H-pyrano[3,4-c]isoquinolin-1-yl)-N-methyl-1H-indole-2-carboxamide]",1400
5,"CN(C(=O)c1cc2c(C(F)F)cc(F)cc2[nH]1)C1COCc2[nH]c(=O)c3cc(F)ccc3c21 (single isomer, unassigned) [Compound 239, 4-(Difluoromethyl)-6-fluoro-N-(8-fluoro-6-oxo-1,4,5,6-tetrahydro-2H-pyrano[3,4-c]isoquinolin-1-yl)-N-methyl-1H-indole-2-carboxamide]",10
6,"CN(C(=O)c1cc2c(C(F)F)c(F)ccc2[nH]1)C1COCc2[nH]c(=O)c3cc(F)ccc3c21 (single isomer, unassigned) [Compound 255, 4-(Difluoromethyl)-5-fluoro-N-(8-fluoro-6-oxo-1,4,5,6-tetrahydro-2H-pyrano[3,4-c]isoquinolin-1-yl)-N-methyl-1H-indole-2-carboxamide]",680
7,"CN(C(=O)c1cc2c(C(F)F)c(F)ccc2[nH]1)C1COCc2[nH]c(=O)c3cc(F)ccc3c21 (single isomer, unassigned) [Compound 256, 4-(Difluoromethyl)-5-fluoro-N-(8-fluoro-6-oxo-1,4,5,6-tetrahydro-2H-pyrano[3,4-c]isoquinolin-1-yl)-N-methyl-1H-indole-2-carboxamide]",10
8,"CN(C(=O)c1cc2c(C(F)F)cc(F)cc2[nH]1)C1CNCc2[nH]c(=O)c3cc(F)c(F)cc3c21 (single isomer, unassigned) [Compound 257, N-(8,9-Difluoro-6-oxo-1,2,3,4,5,6-hexahydrobenzo[c][1,7]naphthyridin-1-yl)-4-(difluoromethyl)-6-fluoro-N-methyl-1H-indole-2-carboxamide]",2200
9,"CN(C(=O)c1cc2c(C(F)F)cc(F)cc2[nH]1)C1CNCc2[nH]c(=O)c3cc(F)c(F)cc3c21 (single isomer, unassigned) [Compound 258, N-(8,9-Difluoro-6-oxo-1,2,3,4,5,6-hexahydrobenzo[c][1,7]naphthyridin-1-yl)-4-(difluoromethyl)-6-fluoro-N-methyl-1H-indole-2-carboxamide]",20
10,"CN(C(=O)c1cc2c(C(F)F)cc(F)cc2[nH]1)C1CNCc2[nH]c(=O)c3cc(F)ccc3c21 (single isomer, unassigned) [Compound 259, 4-(Difluoromethyl)-6-fluoro-N-(8-fluoro-6-oxo-1,2,3,4,5,6-hexahydrobenzo[c][1,7]naphthyridin-1-yl)-N-methyl-1H-indole-2-carboxamide]",5100
